# Counter-ions that a name gives are not always drawn. *1 amine or outer side, *2 acyl side, *3 side chain or, on linkers, in order; H or OH if unused. Where a SMILES comes first, the peptide text is derived from it. [ ]: non-standard residue; d: D form. The star is where a group is joined. Ahppa(3S,4S) = O=C(C[C@H](O)[C@H](Cc1ccccc1)N[*:1])[*:2]; dNMeF = CN[C@H](Cc1ccccc1)C(=O)O; NMeQ = CN[C@@H](CCC(N)=O)C(=O)O; Cbz = O=C(OCc1ccccc1)*
# What was measured:
# [1] = system: HepG2; test: Antiproliferative activity against human HepG2 cells assessed as reduction in cell viability after 72 hrs by CCK-8 assay; assay type: functional, cell-based; settings: HepG2, 72 h
# [2] = system: A549; test: Antiproliferative activity against human A549 cells assessed as reduction in cell viability after 72 hrs by CCK-8 assay; assay type: functional, cell-based; settings: A549, 72 h
# [3] = molecular target: Cathepsin D (Homo sapiens, UniProt P07339); test: Inhibition of recombinant human liver Cathepsin D using Mca-Gly-Lys-Pro-Ile-Leu-Phe-Phe-Arg-Leu-Lys-(Dnp)-D-Arg-NH2 as substrate incubated for 120 mins by fluorescence assay
# Sequence of Cathepsin D (P07339 65-162 limits assumed): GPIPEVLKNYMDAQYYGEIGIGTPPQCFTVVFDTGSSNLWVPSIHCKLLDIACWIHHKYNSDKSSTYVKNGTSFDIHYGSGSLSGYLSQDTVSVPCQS
# Sequence of Cathepsin D (P07339 169-412 limits assumed): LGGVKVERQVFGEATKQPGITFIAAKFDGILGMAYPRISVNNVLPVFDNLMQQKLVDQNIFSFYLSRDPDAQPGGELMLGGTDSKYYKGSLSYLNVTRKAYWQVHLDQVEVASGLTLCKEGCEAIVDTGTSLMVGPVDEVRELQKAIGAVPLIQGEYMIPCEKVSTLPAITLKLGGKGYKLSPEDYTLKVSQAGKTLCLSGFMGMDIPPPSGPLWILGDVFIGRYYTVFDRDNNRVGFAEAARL
# [4] = molecular target: T1, Cathepsin E (Homo sapiens, UniProt P14091); test: Inhibition of Cathepsin E (unknown origin) using Mca-Gly-Lys-Pro-Ile-Leu-Phe-Phe-Arg-Leu-Lys-(Dnp)-D-Arg-NH2 as substrate incubated for 120 mins by fluorescence assay
# T1 sequence (P14091 whole entry): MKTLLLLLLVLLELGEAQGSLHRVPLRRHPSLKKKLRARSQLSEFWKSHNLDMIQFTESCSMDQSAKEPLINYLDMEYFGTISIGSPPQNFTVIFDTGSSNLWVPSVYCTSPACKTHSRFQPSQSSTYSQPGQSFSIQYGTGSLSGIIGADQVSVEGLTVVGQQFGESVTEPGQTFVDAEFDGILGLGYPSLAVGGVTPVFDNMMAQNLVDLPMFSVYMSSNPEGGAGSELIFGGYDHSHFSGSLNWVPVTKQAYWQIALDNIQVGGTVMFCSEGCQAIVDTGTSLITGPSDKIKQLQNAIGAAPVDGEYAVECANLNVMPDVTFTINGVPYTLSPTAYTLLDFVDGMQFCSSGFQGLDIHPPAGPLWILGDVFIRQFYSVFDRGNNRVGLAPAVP
# [5] = system: MDA-MB-231; test: Antiproliferative activity against human MDA-MB-231 cells assessed as reduction in cell viability after 72 hrs by CCK-8 assay; assay type: functional, cell-based; settings: MDA-MB-231, 72 h
# [6] = system: MDA-MB-231; test: Antiproliferative activity against human MDA-MB-231 cells assessed as reduction in cell viability at 10 uM after 72 hrs by CCK-8 assay relative to control; assay type: functional
# [7] = Drug uptake in human MDA-MB-231 cells assessed as increase in internalization at 10 uM after 16 to 24 hrs by LTG/Hoechst 33258 staining based confocal laser scanning microscopy; assay type: ADME, cell-based; settings: mda-mb-231, 10 µM, time 16-24 hrs
# [8] = molecular target: Beta-secretase 1 (Homo sapiens, UniProt P56817); test: Inhibition of BACE1 (unknown origin) using Mca-Ser-Glu-Val-Asn-Leu-Asp-Ala-Glu-Phe-Arg-Lys(Dnp)-Arg-Arg-NH2 as substrate incubated for 120 mins by fluorescence assay
# Sequence of Beta-secretase 1 (P56817 whole entry): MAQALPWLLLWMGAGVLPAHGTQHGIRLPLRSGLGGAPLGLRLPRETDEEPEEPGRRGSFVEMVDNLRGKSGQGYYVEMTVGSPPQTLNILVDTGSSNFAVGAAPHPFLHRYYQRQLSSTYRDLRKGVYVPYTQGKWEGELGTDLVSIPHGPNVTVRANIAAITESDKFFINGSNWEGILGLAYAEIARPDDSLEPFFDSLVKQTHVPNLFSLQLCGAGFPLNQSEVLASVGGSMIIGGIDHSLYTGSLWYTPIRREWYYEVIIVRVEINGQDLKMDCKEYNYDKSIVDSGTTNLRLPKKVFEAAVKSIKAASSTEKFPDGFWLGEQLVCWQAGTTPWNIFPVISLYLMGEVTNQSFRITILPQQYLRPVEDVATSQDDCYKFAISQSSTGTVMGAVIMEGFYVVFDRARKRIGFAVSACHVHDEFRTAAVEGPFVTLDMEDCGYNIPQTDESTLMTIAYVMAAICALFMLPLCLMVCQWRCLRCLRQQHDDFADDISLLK
# [9] = Drug uptake in human MDA-MB-231 cells assessed as increase in co-localization with lysosomal at 10 uM after 16 hrs by LTG/Hoechst 33258 staining based confocal laser scanning microscopy; assay type: ADME, cell-based; settings: mda-mb-231, 16 h
# [10] = Drug uptake in human MDA-MB-231 cells assessed as increase in internalization at 10 uM after 3 to 24 hrs by LTG/Hoechst 33258 staining based confocal laser scanning microscopy; assay type: ADME, cell-based; settings: mda-mb-231, 10 µM, time 3-24 hrs
Structure (SMILES),IC50 [1] [nM],IC50 [2] [nM],IC50 [3] [nM],IC50 [4] [nM],IC50 [5] [nM],inhibition at 10 µM [6] [%],Drug uptake [7],IC50 [8] [nM],Drug uptake [9],Drug uptake [10]
COC(=O)[C@@H]1CCCN1C(=O)[C@@H](Cc1ccc(O)cc1)N(C)C(=O)[C@H](C)NC(=O)[C@H](CC(C)C)NC(=O)C[C@H](O)[C@H](Cc1ccccc1)NC(=O)[C@H](CCC(N)=O)N(C)C(=O)[C@@H](NC(=O)OCc1ccccc1)C(C)C,> 10000,> 10000,0.178,104,> 10000,12,,,,
"COC(=O)[C@@H]1CCCN1C(=O)[C@@H](Cc1ccccc1)N(C)C(=O)[C@H](C)NC(=O)[C@H](CC(C)C)NC(=O)C[C@H](O)[C@H](Cc1ccccc1)NC(=O)[C@H](CCC(N)=O)N(C)C(=O)[C@@H](NC(=O)OCc1ccccc1)C(C)C (Cbz-V[NMeQ][Ahppa(3S,4S)]LA[dNMeF]P-OMe)",> 10000,> 10000,,,> 10000,14,,,,
CC(C)C[C@H](NC(=O)C[C@H](O)[C@H](Cc1ccccc1)NC(=O)[C@H](CCC(N)=O)N(C)C(=O)[C@@H](NC(=O)OCc1ccccc1)C(C)C)C(=O)N[C@@H](C)C(=O)N(C)[C@H](Cc1ccc(OC(C)(C)C)cc1)C(=O)N1CCC[C@H]1C(=O)O,,,19,187,,,,,,
CC(C)C[C@H](NC(=O)C[C@H](O)[C@H](Cc1ccccc1)NC(=O)[C@H](CCC(N)=O)N(C)C(=O)[C@@H](NC(=O)OCc1ccccc1)C(C)C)C(=O)N[C@@H](C)C(=O)N(C)[C@H](Cc1ccccc1)C(=O)N1CCC[C@H]1C(=O)NCCOCCOCCn1cc(CNC(=O)[C@H](CCCCNC(=O)[C@H](CCCCN)NC(=O)[C@H](CCCCN)NC(=O)[C@H](CCC(N)=O)NC(=O)[C@H](CO)NC(=O)CCN2c3ccccc3C(C)(C)[C@]23C=Cc2cc([N+](=O)[O-])ccc2O3)NC(=O)[C@H](CCCCN)NC(=O)[C@H](CCCCN)NC(=O)C(CCC(N)=O)NC(=O)[C@H](CO)NC(=O)CCN2c3ccccc3C(C)(C)[C@]23CCc2cc([N+](=O)[O-])ccc2O3)nn1 (some centres not stated),> 10000,> 10000,41,100,> 10000,49,Active,1030,,
COc1cccc2c1C(=O)c1c(O)c3c(c(O)c1C2=O)C[C@@](O)(C(=O)CO)C[C@@H]3O[C@H]1C[C@H](N)[C@H](O)[C@H](C)O1 [DOXORUBICIN HYDROCHLORIDE],,400,,,370,70,,,,
C#CCNC(=O)[C@H](CCCCNC(=O)[C@H](CCCCN)NC(=O)[C@H](CCCCN)NC(=O)[C@H](CCC(N)=O)NC(=O)[C@H](CO)NC(=O)CCN1c2ccccc2C(C)(C)[C@]12CCc1cc([N+](=O)[O-])ccc1O2)NC(=O)[C@H](CCCCN)NC(=O)[C@H](CCCCN)NC(=O)C(CCC(N)=O)NC(=O)[C@H](CO)NC(=O)CCN1c2ccccc2C(C)(C)[C@]12CCc1cc([N+](=O)[O-])ccc1O2 (some centres not stated),,,,,,,,,Active,Active
CC(C)C[C@H](NC(=O)C[C@H](O)[C@H](Cc1ccccc1)NC(=O)[C@H](CCC(N)=O)N(C)C(=O)[C@@H](NC(=O)OCc1ccccc1)C(C)C)C(=O)N[C@@H](C)C(=O)N(C)[C@H](Cc1ccc(O)cc1)C(=O)N1CCC[C@H]1C(=O)NCCOCCOCCn1cc(CNC(=O)[C@H](CCCCNC(=O)[C@H](CCCCN)NC(=O)[C@H](CCCCN)NC(=O)[C@H](CCC(N)=O)NC(=O)[C@H](CO)NC(=O)CCN2c3ccccc3C(C)(C)[C@]23C=Cc2cc([N+](=O)[O-])ccc2O3)NC(=O)[C@H](CCCCN)NC(=O)[C@H](CCCCN)NC(=O)C(CCC(N)=O)NC(=O)[C@H](CO)NC(=O)CCN2c3ccccc3C(C)(C)[C@]23CCc2cc([N+](=O)[O-])ccc2O3)nn1 (some centres not stated),> 10000,> 10000,22,12,9100,52,Active,828,,
COC(=O)[C@@H]1CCCN1C(=O)[C@@H](Cc1ccc(OC(C)(C)C)cc1)N(C)C(=O)[C@H](C)NC(=O)[C@H](CC(C)C)NC(=O)C[C@H](O)[C@H](Cc1ccccc1)NC(=O)[C@H](CCC(N)=O)N(C)C(=O)[C@@H](NC(=O)OCc1ccccc1)C(C)C,,,18,105,,,,,,
CC(C)C[C@H](NC(=O)C[C@H](O)[C@H](Cc1ccccc1)NC(=O)[C@H](CCC(N)=O)N(C)C(=O)[C@@H](NC(=O)OCc1ccccc1)C(C)C)C(=O)N[C@@H](C)C(=O)N(C)[C@H](Cc1ccccc1)C(=O)N1CCC[C@H]1C(=O)O,,,4.89,120,,,,,,

# From ChEMBL document CHEMBL5154724, “Cathepsin D inhibitors based on tasiamide B derivatives with cell membrane permeability” (Bioorg Med Chem, 2022)
